Source: publication PMC3715890, “A Cyclic Peptide Inhibitor of HIF-1 Heterodimerization That Inhibits Hypoxia Signaling in Cancer Cells” (Journal of the American Chemical Society, 2013)
“Also recorded” adds a separate entry of the source.

How the values were obtained:
[1] = test system: HIF-2α PAS-B; conditions: cited from earlier work
Excerpt: (§1) A homology model of HIF-1α PAS-B mapped onto the NMR s ...

[2] = molecular target: T1, PAS-B domain of HIF-1α (Homo sapiens, UniProt Q16665); conditions: cited from earlier work
T1 construct: Per-ARNT-Sim-B (PAS-B, amino acids 235–350) domains; His (N); made in house; host or cells: E. coli BL21(DE3)
Excerpt: as §1

[3] = test system: HIF-2; conditions: cited from earlier work
Excerpt: (§2) Inhibition of HIF-1 has long been known to hold much potential for cancer therapy;[14] there are multiple possible points for therapeutic intervention in the hypoxia response network, and molecules that inhibit various components of this diverse pathway have been reported,[15]−[22] but the absolute requirement for the dimerization of HIF-1α and HIF-1β for DNA binding and transcription activity of the HIF-1 complex makes this protein–protein interaction a seemingly optimal point of interception. Several high-throughput screens have been conducted in the effort to identify HIF-1 inhibitors,[15], ...

[4] = test system: HIF-1; conditions: cited from earlier work
Excerpt: as §2

[5] = test system: U2OS cells; conditions: 100 μM, hypoxia 24 h
[6] = test system: MCF-7 cells; test: CyQUANT cell proliferation assay, MCF-7; format: cell-based; conditions: 100 μM, 72 h
Method: Sulforhodamine B cytotoxicity assay […]
incubated in hypoxia for 24h.
O.D. value of the experimental set.
CyQUANT cell proliferation assay
The cells were incubated for 5 hours and then treated with Tamoxifen or P1. After 24, 48 or 72 hours, the media was […]
C35006) following the manufacturers instructions. Fluorescence measurements were […]
Workman, P.; Ashcroft, M. Cancer Res 2005, 65, 4918.

[7] = molecular target: T2, His-HIF-1α1–350 with GST-HIF-1β1–474 (Homo sapiens, UniProt Q16665); test: ELISA of HIF-1 dimerization; format: biochemical; conditions: 10 nM to 500 μM, pH 7.5, 30 min preincubation, room temperature, absorbance 450 nm, read-out: IC50, disruption of HIF-1 dimerization
T2 construct: heterodimerization of His-HIF-1α1–350 with GST-HIF-1β1–474 analyzed by ELISA; made in house; host or cells: E. coli BL21(DE3)
Excerpt: We next probed the effect of cyclo-CLLFVY on the interaction of HIF-1α with HIF-1β in vitro. […] Unfortunately, the positively charged Tat-tag of P1 is incompatible with EMSA (interferes with the bandshift of DNA). […] To determine the HIF-1-specificity of cyclo-CLLFVY, we assessed its ability to disrupt HIF-2 dimerization by ELISA. Recombinant His-HIF-2α1–351 was produced and purified, and shown to form functional heterodimers with GST-HIF-1β1–474 by EMSA (Figure S5B).
HIF-1β1-474, *please note that isoform 3 of HIF-1β was used). The standard protocol for protein expression was followed. Briefly, a 1 % culture in LB was incubated at 37 °C with shaking until OD600 of 0.6 was reached. 0.1 mM IPTG was added and the liquid culture incubated with shaking at 18 °C overnight. Cell pellets were suspended in MHW buffer9 (approximately 4 ml buffer per 1 g cell pellet). Lysozyme (100 µg/ml) was added to the lysate and the solution was incubated with shaking for 20 min at 5 °C. […]
glycerol) was added to individual wells of a Pierce Ni2+-coated 96-well plate (Thermo Scientific, catalogue no. […] The stated quantity of inhibitor (P1 or P2) was added as a solution in 100 µL of buffer to the desired wells, and the plate incubated at room temperature for 30 minutes. […]

[8] = test system: MCF-7 cells; conditions: MCF-7, 100 μM, hypoxia 24 h

Row | Compound | targeting of PAS-B domain of HIF-2α [1] | targeting of PAS-B domain of HIF-1α [2] | inhibition of HIF-2 [3] | inhibition of HIF-1 [4] | SRB cytotoxicity [5] | viability / proliferation of MCF-7 cells [6] | IC50 [7] [nM] | SRB cytotoxicity [8]
1 | acriflavine | targeted | targeted | nonselectively inhibits both HIF-1 and HIF-2 | nonselectively inhibits both HIF-1 and HIF-2 | – | – | – | –
2 | CC(C)C[C@@H]1NC(=O)[C@H](CSSC[C@H](N)C(=O)NCC(=O)N[C@@H](CCCNC(=N)N)C(=O)N[C@@H](CCCCN)C(=O)N[C@@H](CCCCN)C(=O)N[C@@H](CCCNC(=N)N)C(=O)N[C@@H](CCCNC(=N)N)C(=O)N[C@@H](CCC(N)=O)C(=O)N[C@@H](CCCNC(=N)N)C(=O)N[C@@H](CCCNC(=N)N)C(=O)N[C@@H](CCCNC(=N)N)C(=O)N2CCC[C@H]2C(=O)N2CCC[C@H]2C(=O)N[C@@H](CCC(N)=O)C(=O)O)NC(=O)[C@H](Cc2ccc(O)cc2)NC(=O)[C@H](C(C)C)NC(=O)[C@H](Cc2ccccc2)NC(=O)[C@H](CC(C)C)NC1=O [P1, Tat-cyclo-CLLFVY] | – | – | – | – | not cytotoxic | did not affect the viability of MCF-7 cells; also recorded: no effect on MCF-7 proliferation | 1300 | not cytotoxic
